# Data published in patent US20160331662A1, “Compositions that Inhibit and Prevent the Formation of Dental Caries and Methods of Using the Same” (priority 2014, published 2016).
# Tests used:
# [1] = target: T1, iSRCR1 (Homo sapiens, UniProt Q9UGM3); assay: SPR binding of analytes to immobilized iSRCR1 (CM5 chip, 1:1 Langmuir); settings: substance alone over CM5 chip
# T1 construct: strongly proves that a single SRCR domain contains the adherence sites for AgI/II and SspB; made in house; host or cells: Drosophila expression system
# Experimental: (§1) Real time binding analyses of the SRCR domains with AgI/II fragments were carried out using the BIAcore 2000 system. […] Self association of iSRCR1 or iSRCR123 (at 2 μM) were also determined in a similar manner as described above. Finally to determine the effect of calcium SPR analysis was carried out by dialyzing the analytes and ligands in binding buffer devoid of CaCl2.
# (§2) In addition, the SRCR holding two distinct surfaces compounded the elucidation of individual kinetics, and presently there are no modeling protocols available to determine the individual affinities for such a system, therefore for simplicity we have utilized a single site 1:1 Langmuir model. All experiments were carried out in triplicates and the kinetics of the association (KA) and dissociation (KD) rate constants were deduced using the 1:1 Langmuir Kinetic model on the BIA-Evaluation software. The concentration (C in μM) of analyte (FL^AgI/II or FL^SspB at 2 μM) that adhered to the immobilized ligand (iSRCR1, iSRCR123) within the flow cell was calculated using the formula C=(RU/MW)×(1/V), where RU is resonance unit (1 RU=1 pg of bound protein), MW is molecular weight of analyte and V is volume of flow cell (1.2×10^−10 L).
# [2] = target: T2, iSRCR123 (Homo sapiens, UniProt Q9UGM3); assay: SPR binding of analytes to immobilized iSRCR123 (CM5 chip, 1:1 Langmuir); settings: substance alone over CM5 chip
# T2 construct: multiple SRCR domains have better adherence capability compared to that of a single SRCR domain; made in house; host or cells: Drosophila expression system
# Experimental: as §1, §2
# [3] = target: T3, SAG (Homo sapiens, UniProt Q9UGM3); assay: SPR binding of analytes to immobilized SAG; settings: 2 mM, control experiment
# T3 construct: from tissue; host or cells: saliva (purified SAG, gift)
# Experimental: as §1, §2
# [4] = tested on: adhesion of AgI/II of S. mutans to iSRCR1; assay: Adherence/inhibition SPR: AgI/II fragments on immobilized iSRCR1; format: binding
# Experimental: (§3) Carbohydrates Galβ1-3-GalNac and Mannose (identified from glycan profile analysis) at different concentrations (0.010, 0.050, 0.1, 0.5 and 1 mM) were incubated with 2 μM of each FL, A3VP1 and C123 of AgI/II and SspB and the interaction with immobilized iSRCR1 and iSRCR123 with running buffer containing 20 mM HEPES, 150 mM NaCl and 2.5 mM CaCl2, pH 7.4 at 25° C. and with flow rate of 20 μl/min was analyzed. Direct adherence of these carbohydrates alone served as the control and all calculations were carried out using the BIAevaluation software. Using the same protocol above at varying concentrations the effect of SRCRP2 peptide on the adherence inhibition was assessed.
# [5] = target: T4, adhesion of SspB of S. gordonii to iSRCR1 (Streptococcus gordonii, UniProt A8AUS1); format: binding; settings: 2 μM protein
# T4 construct: made in house; host or cells: pET23d vector
# Experimental: as §3
# [6] = tested on: adhesion of SspB of S. gordonii to iSRCR1; format: binding; settings: lower concentrations 0.010 mM-0.500 mM
# Experimental: as §3
# [7] = tested on: adhesion of AgI/II of S. mutans to iSRCR123; assay: Adherence/inhibition SPR: AgI/II fragments on immobilized iSRCR123; format: binding
# Experimental: as §3
# [8] = tested on: adhesion of SspB of S. gordonii to iSRCR123; assay: Adherence/inhibition SPR: SspB fragments on immobilized iSRCR123; format: binding
# Experimental: as §3
# [9] = target: T5, AgI/II adherence to immobilized salivary agglutinin (Streptococcus mutans serotype c, UniProt P23504); assay: SPR inhibition of SAG adherence of FL surface protein (Example 2); format: binding, S. mutans; settings: 2 mM
# T5 construct: Recombinant full length (FL) constructs of surface proteins (homologs of AgI/II) AgI/II, SspB, Pas; made in house
# Experimental: (§4) Inhibition of SAG adherence to AgI/II, SspB, Pas, along with glucan binding protein C (GbpC) and collagen binding protein (rcnM) by Galβ1-3GalNac (core-1) was determined as is described in Example 1 and as described below.
# (§5) Recombinant full length (FL) constructs of surface proteins (homologs of AgI/II) AgI/II, SspB, Pas, along with GbpC (Glucan binding protein C) and rcnM (collagen binding protein) were incubated with various concentrations (0.010 mM to 2 mM) of Galβ1-3GalNac at room temperature and their binding interaction with immobilized salivary agglutinin on a CM5 sensor chip was determined.
# [10] = target: T6, SspB adherence to immobilized salivary agglutinin (Streptococcus gordonii, UniProt A8AUS1); assay: as above; format: binding, S. gordonii; settings: 2 mM
# T6 construct: (39-1433) (NotI) Reverse; made in house; host or cells: pET23d vector
# Experimental: as §4, §5
# [11] = tested on: GbpC (Glucan binding protein C) adherence to immobilized salivary agglutinin; assay: as above; parameters: species or system S. mutans; settings: 2 mM
# Experimental: as §4, §5
# [12] = tested on: rcnM (collagen binding protein) adherence to immobilized salivary agglutinin; assay: as above; settings: 2 mM
# Experimental: as §4, §5
# [13] = target: T7, Pas adherence to immobilized salivary agglutinin (Streptococcus intermedius, UniProt Q9KW51); assay: as above; format: binding, S. intermedius; settings: 2 mM
# T7 construct: Recombinant full length (FL) constructs of surface proteins (homologs of AgI/II) AgI/II, SspB, Pas; made in house
# Experimental: as §4, §5
# [14] = tested on: S. gordonii DL1; assay: Aggregation assay (OD700 over 60 min); format: cell-based
# Experimental: (§6) Aggregation assays were performed as described earlier with slight modifications. Briefly, S. mutans UA159 and S. gordonii DL1 cells were grown in TSY broth media overnight at 37° C. in the presence of 5% CO2. The bacteria were centrifuged at 5000×g and washed with a buffer containing 20 mM HEPES pH 7.4, 150 mM NaCl and re-suspended to an approximate OD700 of 1. The bacterial suspension (900 μl) was mixed with 100 μl of SAG or iSRCR1 (10 μM) or iSRCR123 ([…]) or commercially synthesized (Think Peptides, Inc) SRCRP2 peptide with fluorescein amidite (FAM) at the carboxyl end ([…]-[FAM]) (SEQ ID NO:9, at both 400 μg/ml and 1 mg/ml) in the presence of 6 mM CaCl2 and aggregation was measured by recording OD700over 60 min at 5 min intervals, where the buffer alone was used as control. All experiments were carried out at least five times, and the results were analyzed with One-way ANOVA. Post-hoc testing where *, P<0.05 was considered statistically significant and results were presented as the percentage of cells aggregated.
# [15] = tested on: S. mutans UA159; assay: Aggregation assay (OD700 over 60 min); format: cell-based
# Experimental: as §6
# [16] = target: T8, AgI/II of S. mutans (Streptococcus mutans serotype c, UniProt P23504); assay: ELISA binding of fluorescent tagged SRCRP2 peptide; settings: FAM-labelled peptide
# T8 construct: Recombinant full length (FL) constructs of surface proteins (homologs of AgI/II) AgI/II, SspB, Pas; made in house
# [17] = target: SspB of S. gordonii (Streptococcus gordonii, UniProt A8AUS1); settings: FAM-labelled peptide
# [18] = lower concentrations 0.010 mM-0.500 mM
# [19] = peptide at lower concentration (400 μg/ml)
# T2 sequence (Q9UGM3 102-463 limits assumed): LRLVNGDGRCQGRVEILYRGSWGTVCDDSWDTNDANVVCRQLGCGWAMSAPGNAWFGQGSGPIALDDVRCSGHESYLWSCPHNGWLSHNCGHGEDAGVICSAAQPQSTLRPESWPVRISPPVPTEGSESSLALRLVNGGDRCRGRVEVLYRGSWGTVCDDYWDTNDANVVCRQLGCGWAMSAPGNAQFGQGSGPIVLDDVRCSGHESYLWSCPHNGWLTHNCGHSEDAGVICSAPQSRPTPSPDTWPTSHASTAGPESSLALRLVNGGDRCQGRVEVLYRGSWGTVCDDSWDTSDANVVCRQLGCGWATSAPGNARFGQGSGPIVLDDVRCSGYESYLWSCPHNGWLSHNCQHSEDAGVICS
# T1 sequence (Q9UGM3 102-202 limits assumed): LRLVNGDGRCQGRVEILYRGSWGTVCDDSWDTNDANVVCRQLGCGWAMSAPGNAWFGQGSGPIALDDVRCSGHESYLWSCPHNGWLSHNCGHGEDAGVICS
# T7 sequence (Q9KW51 39-1310): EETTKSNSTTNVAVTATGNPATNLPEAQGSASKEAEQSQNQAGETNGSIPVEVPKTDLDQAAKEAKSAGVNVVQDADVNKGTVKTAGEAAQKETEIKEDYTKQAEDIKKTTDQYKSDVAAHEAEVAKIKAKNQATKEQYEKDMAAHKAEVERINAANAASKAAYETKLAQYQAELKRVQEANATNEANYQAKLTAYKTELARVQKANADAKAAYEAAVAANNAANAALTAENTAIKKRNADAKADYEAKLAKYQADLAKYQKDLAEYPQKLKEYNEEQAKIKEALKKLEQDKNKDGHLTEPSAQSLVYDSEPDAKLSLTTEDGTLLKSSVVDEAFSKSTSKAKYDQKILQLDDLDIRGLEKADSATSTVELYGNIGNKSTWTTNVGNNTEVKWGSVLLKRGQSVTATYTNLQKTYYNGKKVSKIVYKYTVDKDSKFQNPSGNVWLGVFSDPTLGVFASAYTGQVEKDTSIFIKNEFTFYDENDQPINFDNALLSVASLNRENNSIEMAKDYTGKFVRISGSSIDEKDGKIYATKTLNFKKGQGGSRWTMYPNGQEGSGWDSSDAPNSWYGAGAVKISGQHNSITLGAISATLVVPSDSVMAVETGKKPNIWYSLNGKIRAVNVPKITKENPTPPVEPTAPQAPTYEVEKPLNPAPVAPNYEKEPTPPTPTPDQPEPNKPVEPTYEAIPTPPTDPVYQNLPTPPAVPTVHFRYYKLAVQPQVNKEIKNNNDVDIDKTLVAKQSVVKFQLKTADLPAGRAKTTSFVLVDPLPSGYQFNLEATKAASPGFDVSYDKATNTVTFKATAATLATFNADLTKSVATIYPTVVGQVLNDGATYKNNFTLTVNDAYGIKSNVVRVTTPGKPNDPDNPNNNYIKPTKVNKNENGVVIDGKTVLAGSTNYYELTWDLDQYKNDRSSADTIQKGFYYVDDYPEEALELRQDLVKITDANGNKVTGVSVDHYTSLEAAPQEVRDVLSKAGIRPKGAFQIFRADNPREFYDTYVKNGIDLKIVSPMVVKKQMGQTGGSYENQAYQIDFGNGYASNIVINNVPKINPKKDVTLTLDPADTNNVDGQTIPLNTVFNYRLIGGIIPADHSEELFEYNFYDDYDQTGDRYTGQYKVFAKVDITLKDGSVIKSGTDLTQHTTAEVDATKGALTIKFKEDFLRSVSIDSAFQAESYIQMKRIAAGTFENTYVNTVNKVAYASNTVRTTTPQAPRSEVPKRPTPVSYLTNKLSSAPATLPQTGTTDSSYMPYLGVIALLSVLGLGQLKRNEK
# T3 sequence (Q9UGM3 20-2413): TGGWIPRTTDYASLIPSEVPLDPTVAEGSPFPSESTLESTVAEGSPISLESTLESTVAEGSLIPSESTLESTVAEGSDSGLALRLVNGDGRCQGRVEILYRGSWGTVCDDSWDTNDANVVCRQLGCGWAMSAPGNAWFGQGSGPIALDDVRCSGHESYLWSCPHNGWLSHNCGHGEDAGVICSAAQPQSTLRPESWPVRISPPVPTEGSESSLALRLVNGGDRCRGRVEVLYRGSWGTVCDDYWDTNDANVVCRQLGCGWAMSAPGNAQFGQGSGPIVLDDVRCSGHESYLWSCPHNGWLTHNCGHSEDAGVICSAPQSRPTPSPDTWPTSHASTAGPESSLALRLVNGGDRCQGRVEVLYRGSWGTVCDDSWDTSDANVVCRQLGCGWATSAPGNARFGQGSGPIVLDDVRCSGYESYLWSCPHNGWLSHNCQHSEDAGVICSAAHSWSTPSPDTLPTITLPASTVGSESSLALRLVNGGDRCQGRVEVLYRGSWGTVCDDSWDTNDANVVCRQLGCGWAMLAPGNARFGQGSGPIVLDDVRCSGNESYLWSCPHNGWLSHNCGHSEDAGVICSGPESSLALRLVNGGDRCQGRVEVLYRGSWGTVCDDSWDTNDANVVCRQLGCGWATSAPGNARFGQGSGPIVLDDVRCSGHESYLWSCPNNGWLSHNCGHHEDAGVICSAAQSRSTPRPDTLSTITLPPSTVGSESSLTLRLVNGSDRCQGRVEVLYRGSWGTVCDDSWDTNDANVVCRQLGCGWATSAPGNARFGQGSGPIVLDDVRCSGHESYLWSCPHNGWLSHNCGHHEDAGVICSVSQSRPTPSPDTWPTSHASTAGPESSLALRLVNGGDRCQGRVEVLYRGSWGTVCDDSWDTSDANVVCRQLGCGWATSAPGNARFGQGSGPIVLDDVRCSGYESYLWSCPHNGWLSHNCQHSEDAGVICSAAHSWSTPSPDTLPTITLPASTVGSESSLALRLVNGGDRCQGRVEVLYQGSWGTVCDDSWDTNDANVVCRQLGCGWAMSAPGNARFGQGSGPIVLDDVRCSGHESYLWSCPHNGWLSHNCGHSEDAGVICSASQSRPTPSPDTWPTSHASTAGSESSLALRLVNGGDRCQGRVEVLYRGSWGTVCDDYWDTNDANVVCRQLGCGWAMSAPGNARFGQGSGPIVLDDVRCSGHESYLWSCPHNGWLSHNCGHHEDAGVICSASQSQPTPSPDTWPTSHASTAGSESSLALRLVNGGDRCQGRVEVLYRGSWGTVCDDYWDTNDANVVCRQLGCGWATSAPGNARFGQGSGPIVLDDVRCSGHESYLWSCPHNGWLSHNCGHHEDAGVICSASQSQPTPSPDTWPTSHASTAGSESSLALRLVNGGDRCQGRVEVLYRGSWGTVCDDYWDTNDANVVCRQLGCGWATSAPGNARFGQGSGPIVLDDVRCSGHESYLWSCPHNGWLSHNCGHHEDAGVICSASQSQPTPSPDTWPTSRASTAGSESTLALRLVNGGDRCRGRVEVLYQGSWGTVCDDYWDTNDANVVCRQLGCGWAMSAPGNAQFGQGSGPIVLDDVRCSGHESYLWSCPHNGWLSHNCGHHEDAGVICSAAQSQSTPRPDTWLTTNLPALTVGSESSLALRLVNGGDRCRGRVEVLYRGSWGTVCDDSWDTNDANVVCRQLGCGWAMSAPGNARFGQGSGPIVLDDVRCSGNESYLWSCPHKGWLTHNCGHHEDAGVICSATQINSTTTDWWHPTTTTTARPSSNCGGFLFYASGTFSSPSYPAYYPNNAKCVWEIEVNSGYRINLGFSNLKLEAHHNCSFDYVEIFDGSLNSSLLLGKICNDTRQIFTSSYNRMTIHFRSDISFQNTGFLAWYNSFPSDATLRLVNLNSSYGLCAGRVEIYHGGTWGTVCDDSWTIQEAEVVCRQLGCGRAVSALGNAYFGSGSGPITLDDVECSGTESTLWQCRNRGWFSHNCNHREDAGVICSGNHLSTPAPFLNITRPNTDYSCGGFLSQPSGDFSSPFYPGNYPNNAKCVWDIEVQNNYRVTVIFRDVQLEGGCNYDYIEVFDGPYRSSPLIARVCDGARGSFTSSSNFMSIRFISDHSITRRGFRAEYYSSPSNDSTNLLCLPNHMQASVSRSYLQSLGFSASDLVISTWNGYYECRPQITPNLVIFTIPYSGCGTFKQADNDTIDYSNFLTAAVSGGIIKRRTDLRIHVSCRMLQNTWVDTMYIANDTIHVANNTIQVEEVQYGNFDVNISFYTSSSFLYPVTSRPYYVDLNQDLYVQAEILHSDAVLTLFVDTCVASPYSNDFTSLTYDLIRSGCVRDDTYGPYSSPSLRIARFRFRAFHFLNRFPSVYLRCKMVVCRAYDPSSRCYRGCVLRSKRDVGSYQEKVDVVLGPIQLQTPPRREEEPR
compound,measurement,setting,value
CC(=O)N[C@H]1C(O)O[C@H](CO)[C@H](O)[C@@H]1O[C@@H]1O[C@H](CO)[C@H](O)[C@H](O)[C@H]1O (some centres unmarked) [Galβ1-3-GalNac],direct binding to immobilized iSRCR1 (in words),[1],did not have any interactions
same,direct binding to immobilized iSRCR123 (in words),[2],did not have any interactions
same,direct adherence to SAG (in words),[3],did not show direct adherence
same,inhibition of adhesion of A3VP1^AgI/II to iSRCR1,"[4]; 1.0 mM, 2 μM protein",79%
same,inhibition of adhesion of C123^AgI/II to iSRCR1,"[4]; 1.0 mM, 2 μM protein",73%
same,inhibition of adhesion of FL^AgI/II to iSRCR1,"[4]; 1.0 mM, 2 μM protein",85%
same,effect on adhesion of all AgI/II fragments with iSRCR1 (in words),[4]; [18],enhanced the adhesion
same,inhibition of adhesion of A3VP1^SspB to iSRCR1,[5]; 1.0 mM,61%
same,inhibition of adhesion of C123^SspB to iSRCR1,[5]; 1.0 mM,32%
same,inhibition of adhesion of FL^SspB to iSRCR1,[5]; 1.0 mM,64%
same,effect on adhesion of all SspB fragments with iSRCR1 (in words),[6],enhanced the adhesion
same,inhibition of adhesion of A3VP1^AgI/II to iSRCR123,"[7]; 1.0 mM, 2 μM protein",75%
same,inhibition of adhesion of C123^AgI/II to iSRCR123,"[7]; 1.0 mM, 2 μM protein",47%
same,inhibition of adhesion of FL^AgI/II to iSRCR123,"[7]; 1.0 mM, 2 μM protein",73%
same,effect on adhesion of all AgI/II fragments with iSRCR123 (in words),[7]; [18],enhanced the adhesion
same,inhibition of adhesion of A3VP1^SspB to iSRCR123,"[8]; 1.0 mM, 2 μM protein",60%
same,inhibition of adhesion of C123^SspB to iSRCR123,"[8]; 1.0 mM, 2 μM protein",40%
same,inhibition of adhesion of FL^SspB to iSRCR123,"[8]; 1.0 mM, 2 μM protein",37%
same,effect on adhesion of all SspB fragments with iSRCR123 (in words),[8]; [18],enhanced the adhesion
same,inhibition of SAG adherence of AgI/II,[9],94%
same,inhibition of SAG adherence of SspB,[10],65%
same,inhibition of SAG adherence of GBPC,[11],72%
same,inhibition of SAG adherence of rcnM,[12],69%
same,inhibition of SAG adherence of Pas,[13],28%
"QGRVEVLYRGSWGTVC [SRCRP2 peptide, reference compound]",direct binding to immobilized iSRCR1 (in words),[1],did not show any binding
same,direct binding to immobilized iSRCR123 (in words),[2],did not show any binding
same,percentage of cells aggregated,[14]; peptide 1 mg/ml,12%
same,percentage of cells aggregated,[14]; [19],11%
same,percentage of cells aggregated,[15]; peptide 1 mg/ml,18%
same,percentage of cells aggregated,[15]; [19],12%
same,change in adherence of C123^AgI/II to iSRCR1,"[4]; 0.005 mM peptide, 2 μM protein",2.3%
same,improvement of adherence of A3VP1^AgI/II to iSRCR1,"[4]; 0.005 mM peptide, 2 μM protein",13%
same,improvement of adherence of FL^AgI/II to iSRCR1,"[4]; 0.005 mM peptide, 2 μM protein",8%
same,change in adherence of A3VP1^SspB to iSRCR1,[5]; 0.005 mM peptide,3%
same,change in adherence of C123^SspB to iSRCR1,[5]; 0.005 mM peptide,4%
same,improvement of adherence of FL^SspB to iSRCR1,[5]; 0.005 mM peptide,97%
same,change in adherence of C123^AgI/II to iSRCR123,"[7]; 0.005 mM peptide, 2 μM protein",7%
same,improvement of adherence of A3VP1^AgI/II to iSRCR123,"[7]; 0.005 mM peptide, 2 μM protein",16%
same,improvement of adherence of FL^AgI/II to iSRCR123,"[7]; 0.005 mM peptide, 2 μM protein",8%
same,change in adherence of A3VP1^SspB to iSRCR123,"[8]; 0.005 mM peptide, 2 μM protein",3%
same,change in adherence of C123^SspB to iSRCR123,"[8]; 0.005 mM peptide, 2 μM protein",5%
same,improvement of adherence of FL^SspB to iSRCR123,"[8]; 0.005 mM peptide, 2 μM protein",91%
same,adherence to AgI/II and its subfragments by ELISA (in words),[16],adheres well
same,adherence to SspB and its subfragments by ELISA (in words),[17],adheres well
